Laboratory results published in the supplement of paper PMC4862054.

Legend:
Details in all cases: incubation time: 72 h
[1] = system: BT-474; experiment: normalised response (% of control), CellTiter-Glo; higher = more viable cells (100 = DMSO, 0 = benzethonium chloride kill control)
In short: (§1)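 The table gives the normalised signal for a single concentration in each entry. Breast cancer cell lines were seeded (20 µl suspension) into 384-well plates holding compound at 5 concentrations in 10-fold steps over a compound-specific 10,000-fold range and incubated 72 h, then read for CellTox Green fluorescence (485/520 nm) and CellTiter-Glo luminescence. Normalisation on each plate used 0.1 % DMSO (100) and a positive kill control (0).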

[2] = system: BT-549; experiment: as above
In short: as §1

[3] = system: CAL-120; experiment: as above
In short: as §1

[4] = system: CAL-148; experiment: as above
In short: as §1

[5] = system: CAL-51; experiment: as above
In short: as §1

[6] = system: CAL-85-1; experiment: as above
In short: as §1

[7] = system: DU-4475; experiment: as above
In short: as §1

[8] = system: HCC1143; experiment: as above
In short: as §1

[9] = system: HCC1599; experiment: as above
In short: as §1

[10] = system: HCC1937; experiment: as above
In short: as §1

[11] = system: HDQ-P1; experiment: as above
In short: as §1

[12] = system: Hs578T; experiment: as above
In short: as §1

[13] = system: MCF-10A; experiment: as above
In short: as §1

[14] = system: MDA-MB-231; experiment: as above
In short: as §1

[15] = system: MDA-MB-436; experiment: as above
In short: as §1

[16] = system: MDA-MB-453; experiment: as above
In short: as §1

[17] = system: MDA-MB-468; experiment: as above
In short: as §1

[18] = system: MFM-223; experiment: as above
In short: as §1

[19] = system: SK-BR-3; experiment: as above
In short: as §1

[20] = system: BT-474; experiment: normalised viability (% of control), CellTiter-Blue; higher = more viable cells (100 = DMSO, 0 = benzethonium chloride kill control)
Protocol: (§2)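 DSRT, CellTiter-Blue viability, 72 h incubation. Signal is normalised to DMSO and benzethonium chloride controls. Value is the normalised response at dose 1.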

[21] = system: BT-549; experiment: as above
Protocol: as §2

[22] = system: CAL-120; experiment: as above
Protocol: as §2

[23] = system: CAL-148; experiment: as above
Protocol: as §2

[24] = system: CAL-51; experiment: as above
Protocol: as §2

[25] = system: CAL-85-1; experiment: as above
Protocol: as §2

[26] = system: DU-4475; experiment: as above
Protocol: as §2

[27] = system: HCC1143; experiment: as above
Protocol: as §2

[28] = system: HCC1599; experiment: as above
Protocol: as §2

[29] = system: HCC1937; experiment: as above
Protocol: as §2

[30] = system: HDQ-P1; experiment: as above
Protocol: as §2

[31] = system: Hs578T; experiment: as above
Protocol: as §2

[32] = system: MDA-MB-231; experiment: as above
Protocol: as §2

[33] = system: MDA-MB-436; experiment: as above
Protocol: as §2

[34] = system: MDA-MB-453; experiment: as above
Protocol: as §2

[35] = system: MDA-MB-468; experiment: as above
Protocol: as §2

[36] = system: MFM-223; experiment: as above
Protocol: as §2

[37] = system: SK-BR-3; experiment: as above
Protocol: as §2

| Compound | normalised response [1] | normalised response [2] | normalised response [3] | normalised response [4] | normalised response [5] | normalised response [6] | normalised response [7] | normalised response [8] | normalised response [9] | normalised response [10] | normalised response [11] | normalised response [12] | normalised response [13] | normalised response [14] | normalised response [15] | normalised response [16] | normalised response [17] | normalised response [18] | normalised response [19] | normalised viability [20] | normalised viability [21] | normalised viability [22] | normalised viability [23] | normalised viability [24] | normalised viability [25] | normalised viability [26] | normalised viability [27] | normalised viability [28] | normalised viability [29] | normalised viability [30] | normalised viability [31] | normalised viability [32] | normalised viability [33] | normalised viability [34] | normalised viability [35] | normalised viability [36] | normalised viability [37] |
| --- | --- | --- | --- | --- | --- | --- | --- | --- | --- | --- | --- | --- | --- | --- | --- | --- | --- | --- | --- | --- | --- | --- | --- | --- | --- | --- | --- | --- | --- | --- | --- | --- | --- | --- | --- | --- | --- |
| Cc1ccc(C(=O)N(CCCN)[C@@H](c2oc3cc(Cl)ccc3c(=O)c2Cc2ccccc2)C(C)C)cc1 (0.1 nM) | 97.8% | 99.1% | 100% | 101% | 98.9% | 96% | 96% | 96.8% | 101% | 101% | 100% | 102% | 90.2% | 98.7% | 106% | 100% | 89.2% | 93.2% | 89% | 68.8% | 100% | 90.3% | 111% | 103% | 86.1% | 95.9% | 101% | 108% | 93% | 126% | 135% | 90.4% | 111% | 101% | 97.3% | 105% | 105% |
| CO[C@H]1/C=C\C=C(/C)C(=O)NC2=CC(=O)C(NCCN(C)C)=C(C[C@@H](C)C[C@H](OC)[C@H](O)[C@@H](C)/C=C(\C)[C@@H]1OC(N)=O)C2=O [Alvespimycin] (0.1 nM) | 105% | 105% | 105% | 106% | 69.6% | 100% | 109% | 95.1% | 112% | 92.7% | 94.8% | 91.2% | 101% | 98.5% | 97.5% | 111% | 116% | 107% | 111% | 102% | 91.9% | 100% | 102% | 92.8% | 102% | 108% | 103% | 76% | 113% | 105% | 117% | 99.7% | 98% | 99.2% | 104% | 99.9% | 104% |
| CCC1(c2ccc(N)cc2)CCC(=O)NC1=O (centres undefined) [Aminoglutethimide] (1 nM) | 103% | 106% | 106% | 108% | 112% | 109% | 99.1% | 97% | 91.7% | 96.2% | 98.4% | 96.9% | 97.8% | 110% | 87.3% | 98.6% | 104% | 99.8% | 103% | 91.1% | 93.2% | 110% | 107% | 86.1% | 115% | 98.7% | 109% | 95.7% | 97.3% | 92.7% | 107% | 85.4% | 98.2% | 89.7% | 97.1% | 108% | 90% |
| Cn1c(CCCC(=O)O)nc2cc(N(CCCl)CCCl)ccc21 [Bendamustine] (1 nM) | 107% | 101% | 99.5% | 116% | 75.8% | 105% | 108% | 104% | 99.5% | 103% | 102% | 99.8% | 103% | 106% | 97.5% | 127% | 108% | 106% | 117% | 108% | 106% | 90.5% | 108% | 102% | 90.2% | 111% | 112% | 107% | 103% | 65.9% | 104% | 116% | 109% | 109% | 110% | 94.8% | 93.2% |
| C=C(c1ccc(C(=O)O)cc1)c1cc2c(cc1C)C(C)(C)CCC2(C)C [Bexarotene] (1 nM) | 103% | 103% | 99.6% | 107% | 105% | 99.7% | 99.6% | 99.7% | 98.9% | 100% | 102% | 93.2% | 99.8% | 107% | 89.5% | 111% | 109% | 97.5% | 102% | 81.1% | 88.7% | 115% | 105% | 94.1% | 102% | 82.5% | 110% | 101% | 108% | 84.7% | 111% | 86.1% | 82.5% | 83.5% | 105% | 99.6% | 94.8% |
| COc1cc2nccc(Oc3ccc(NC(=O)C4(C(=O)Nc5ccc(F)cc5)CC4)cc3)c2cc1OC [Cabozantinib] (0.1 nM) | 101% | 102% | 103% | 99.7% | 87.8% | 97.1% | 95.2% | 96.2% | 113% | 100% | 95.2% | 100% | 92.2% | 104% | 83.3% | 116% | 103% | 99.5% | 97.5% | 100% | 115% | 83.8% | 107% | 103% | 90.2% | 101% | 95.4% | 77.6% | 94.8% | 96.1% | 97.4% | 115% | 103% | 99.4% | 105% | 93% | 101% |
| C[C@@H](Oc1cc(-c2cnn(C3CCNCC3)c2)cnc1N)c1c(Cl)ccc(F)c1Cl [Crizotinib] (1 nM) | 101% | 91.8% | 91.7% | 91.3% | 117% | 96.6% | 105% | 102% | 106% | 105% | 96.4% | 101% | 94.9% | 108% | 103% | 100% | 99.8% | 101% |  | 113% | 75.4% | 90.6% | 101% | 108% | 83.9% | 101% | 86.5% | 85.4% | 105% | 61.5% | 90.5% | 93.3% | 74.1% | 95.3% | 91.4% | 87.8% | 98.5% |
| C[C@]12CC[C@@H]3c4ccc(O)cc4C[C@@H](CCCCCCCCC[S+]([O-])CCCC(F)(F)C(F)(F)F)[C@H]3[C@@H]1CC[C@@H]2O (some centres undefined) [Fulvestrant] (1 nM) | 103% | 98.4% | 97.4% | 103% | 119% | 101% | 102% | 105% | 90.3% | 96.9% | 99.3% | 111% | 103% | 101% | 105% | 112% | 97.8% | 104% |  | 70.6% | 89.9% | 77.8% | 102% | 111% | 78.7% | 97.6% | 79.1% | 94.6% | 87.6% | 93.6% | 90.2% | 79% | 106% | 100% | 93.2% | 74.9% | 108% |
